According to publication PMC12186255, “Discovery and Characterization of Small Molecule Inhibitors Targeting Exonuclease 1 for Homologous Recombination-Deficient Cancer Therapy” (ACS Chemical Biology, 2025):
pIC50: −log10 of the molar value. Entries after “also recorded” stand apart in the source; their conditions may differ.

Legend:
EXO1 K85A = target: T1, EXO1 K85A (Homo sapiens, UniProt Q9UQ84, K85A); test: In vitro exonuclease activity of mutant with inhibitors; type: biochemical; conditions: EXO1 25 nM, DNA substrate 250 nM; C200 0-5 μM, F684 10-40 μM
T1 construct: The N-terminal domain of human EXO1 (hEXO1) (residues 1–345) was cloned into the pET28b vector; made in house; host or cells: E. coli BL21(DE3) and Rosetta 2(DE3)
Description: (§1) Simultaneously, we tested the effect of each point mutation on the in vitro exonuclease activity. Most mutations in site 1 result in some loss of enzymatic activity compared to WT EXO1 (Figure S13; WT:Figure S13a), particularly K85A and D225A (Figure S13b,f). […] However, at concentrations of 20 and 40 μM, the mutants (K85A and R92A) behaved more like WT (Figure b).
(§2) In both panels a and b, DMSO without inhibitors was used as a control, and its relative binding activity was set equal to 1.0. The EXO1 enzyme concentration was 25 nM, and the DNA substrate concentration was 250 nM. The values shown are the mean ± S.D. of three independent experiments.
(§3) The N-terminal domain of human EXO1 (hEXO1) (residues 1–345) was cloned into the pET28b vector. The following mutations were introduced via site-directed mutagenesis based on the findings of molecular docking analysis: K85A, E89A, R92A, I125A, D225A, K292A, and K294A (oligonucleotide primers listed in Table S1) following the established protocol.

EXO1 R92A = target: T2, EXO1 R92A (Homo sapiens, UniProt Q9UQ84, R92A); test: as above; type: biochemical; conditions: EXO1 25 nM, DNA substrate 250 nM; C200 0-5 μM, F684 10-40 μM
T2 construct: The N-terminal domain of human EXO1 (hEXO1) (residues 1–345) was cloned into the pET28b vector; made in house; host or cells: E. coli BL21(DE3) and Rosetta 2(DE3)
Description: as §1, §2, §3

MDA-MB-436 cells = test: S-phase PARylation immunofluorescence; type: cell-based, human; conditions: MDA-MB-436 BRCA1− and BRCA1+ cells, 10 or 50 μM overnight
Description: (b) Quantification of the relative PARylation per nucleus from panel a. […] Strong PARylation foci are observed in BRCA1– cells. […] (d) Quantification of the relative PARylation per nucleus from panel c.
Cells were seeded at a density of 3× 10^5 cells per well in 12-well plates with preplaced coverslips and treated with or without various inhibitor treatments overnight. Cells were then incubated with EdU for 30 min before collection. For PARylation analysis, cells were permeabilized with 0.1% Triton X100, fixed with 4% paraformaldehyde, blocked with the Image-iT FX signal enhancer (Invitrogen), and incubated (1.5 h, RT) with the indicated primary antibodies (PAR/pADPr Antibody; Biotechne). The cells were then washed with PBS buffer and incubated (1 h, RT) with the corresponding secondary antibodies (1:200, Invitrogen). Subsequently, the fixed cells were incubated with the Click-iT reaction mix (100 mM Tris-HCl pH 8.5, […], 1 mM CuSO4, and 100 mM ascorbic acid (Sigma-Aldrich)) for 1 h at RT. The slides were then washed with the PBS buffer, counterstained with DAPI, and analyzed with a fluorescence microscope (Zeiss Observer Z1). […] The slides were then washed with the PBS buffer, incubated with the Click-iT reaction mix for EdU as aforementioned, counterstained with DAPI, and analyzed with a fluorescence microscope (Zeiss Observer Z1).

U2OS cells = test: Homologous recombination assay (HR-GFP reporter); type: cell-based, human; conditions: I-SceI, 0, 10, 50, 100 μM, 48 h
Description: Following viral infection, the culture medium was replaced with a fresh medium containing small molecule inhibitors. […] Subsequently, cells were harvested, and GFP-positive frequencies indicative of HR repair events were quantified using a CyAn ADP Analyzer (Beckman Coulter, Inc.). Experiments were performed in triplicate, and data are presented as mean ± standard deviation (S.D.).

[1] = test system: subset of the NCI-60 cell line panel plus FG, AsPC1, CaPan2 (31 cell lines); test: Tumor cell line drug profiling, CellTiter Glo, whole panel; type: cell-based; conditions: Homo sapiens, 72 h, read-out: IC50 values across the cell line panel
Description: (§4) We tested the cytotoxicity of representative compounds from the seven EXO1i scaffolds against a subset of the NCI-60 cell line panel along with three additional pancreatic cell lines (FG, AsPC1, and CaPan2). In general, cells were seeded in 384-well tissue culture-treated plates overnight and treated with various concentrations of each hit compound (a serial 3-fold dilution from 50 μM for all tested hits). Each concentration was performed in duplicate. Cell viability was then measured by CellTiter Glo (Promega) after 72 h of treatment.

ACHN = test: Cell line drug profiling, CellTiter Glo; type: cell-based; conditions: Homo sapiens, Kidney, 72 h
Description: as §4

AsPC1 = test: Cell line drug profiling, CellTiter Glo; type: cell-based; conditions: Homo sapiens; AsPC1, Pancreatic, 72 h
Description: as §4

BT549 = test: Cell line drug profiling, CellTiter Glo; type: cell-based; conditions: Homo sapiens, BT-549; BT549, Breast, 72 h
Description: as §4

CCRF-CEM = test: Cell line drug profiling, CellTiter Glo; type: cell-based; conditions: Homo sapiens, Leukemia, 72 h
Description: as §4

CaPan2 = test: Cell line drug profiling, CellTiter Glo; type: cell-based; conditions: Homo sapiens, Capan-2; CaPan2, Pancreatic, 72 h
Description: as §4

FG = test: Cell line drug profiling, CellTiter Glo; type: cell-based; conditions: Homo sapiens, Pancreatic, 72 h
Description: as §4

HL-60(TB) = test: Cell line drug profiling, CellTiter Glo; type: cell-based; conditions: Homo sapiens, Leukemia, 72 h
Description: as §4

HS 578T = test: Cell line drug profiling, CellTiter Glo; type: cell-based; conditions: Homo sapiens, Breast, 72 h
Description: as §4

MCF7 (B3) = test: Cell line drug profiling, CellTiter Glo; type: cell-based; conditions: Homo sapiens, Breast, 72 h
Description: as §4

MCF7 = test: Cell line drug profiling, CellTiter Glo; type: cell-based; conditions: Homo sapiens; MCF7, Breast, 72 h
Description: as §4

MDA-MB-231 = test: Cell line drug profiling, CellTiter Glo; type: cell-based; conditions: Homo sapiens; MDA-MB-231, Breast, 72 h
Description: as §4

OVCAR-3 = test: Cell line drug profiling, CellTiter Glo; type: cell-based; conditions: Homo sapiens; OVCAR-3, Ovarian, 72 h
Description: as §4

SF-268 = test: Cell line drug profiling, CellTiter Glo; type: cell-based; conditions: Homo sapiens; SF-268, Central Nervous System, 72 h
Description: as §4

SK-MEL-28 = test: Cell line drug profiling, CellTiter Glo; type: cell-based; conditions: Homo sapiens; SK-MEL-28, Melanoma, 72 h
Description: as §4

UO-31 = test: Cell line drug profiling, CellTiter Glo; type: cell-based; conditions: Homo sapiens; UO-31, Kidney, 72 h
Description: as §4

T2 sequence (Q9UQ84 1-345 R92A): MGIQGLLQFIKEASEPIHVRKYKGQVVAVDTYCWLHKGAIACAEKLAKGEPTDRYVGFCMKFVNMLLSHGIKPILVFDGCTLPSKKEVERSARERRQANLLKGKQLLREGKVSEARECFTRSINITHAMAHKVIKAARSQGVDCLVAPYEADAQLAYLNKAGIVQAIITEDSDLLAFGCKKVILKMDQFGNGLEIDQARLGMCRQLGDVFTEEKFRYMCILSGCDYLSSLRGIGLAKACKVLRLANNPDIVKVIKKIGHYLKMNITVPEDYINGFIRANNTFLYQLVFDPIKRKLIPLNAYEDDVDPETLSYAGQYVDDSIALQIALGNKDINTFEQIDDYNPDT
T1 sequence (Q9UQ84 1-345 K85A): as the sequence (Q9UQ84 1-345 R92A) above, with K85A, A92R counted along it

Row | Structure (SMILES) | inhibitory activity against EXO1 K85A mutant vs WT (EXO1 K85A) | inhibitory activity against EXO1 R92A mutant vs WT (EXO1 R92A) | S-phase PARylation (MDA-MB-436 cells) | HR frequency (GFP-positive cells) (U2OS cells) | pIC50 [1] | pIC50 (ACHN) | pIC50 (AsPC1) | pIC50 (BT549) | pIC50 (CCRF-CEM) | pIC50 (CaPan2) | pIC50 (FG) | pIC50 (HL-60(TB)) | pIC50 (HS 578T) | pIC50 (MCF7 (B3)) | pIC50 (MCF7) | pIC50 (MDA-MB-231) | pIC50 (OVCAR-3) | pIC50 (SF-268) | pIC50 (SK-MEL-28) | pIC50 (UO-31)
1 | COC(=O)c1nc(-c2ccc(OC)cc2)nc(O)c1O [C200] | did not have a significant | partially lost its inhibitory effect; also recorded: abolished | no effect | no significant changes | < 4.30 | < 4.30 | < 4.30 | < 4.30 | 4.56 | < 4.30 | < 4.30 | < 4.30 | < 4.30 | < 4.30 | < 4.30 | < 4.30 | < 4.30 | < 4.30 | < 4.30 | < 4.30
2 | Cc1cccc(N2CCN(c3ccc(NS(=O)(=O)c4ccccc4)c(C(=O)O)c3)CC2)c1C [F684] | partially lost its inhibitory effects; also recorded: abolished | partially lost its inhibitory effects; also recorded: abolished | additive effect | inhibition of HR that increased with dose | 4.60 to 4.82 | 4.54 | < 4.30 | 4.92 | 4.83 | 4.32 | 4.56 | 4.70 | 4.74 | 4.63 | 4.70 | 4.54 | 4.96 | 4.41 | 4.42 | 4.69
